We go through one compound from US20050288264A2, “Dosage Regimen and Pharmaceutical Composition for Emergency Contraception” (priority 2001, published 2005).

Like-named read-outs stand apart in the source and are kept apart here.

The format of the data set is in vivo, women. As for the experimental part: The efficacy of the regimen according to this invention was compared with the known regimen administering 0.75-0.75 mg of levonorgestrel 12 hours apart in the following trials.
In a double-blind, randomized, multicentre, multinational trial 1,356 women received 0.75-0.75 mg of levonorgestrel at 12-hour interval in the traditional way, while 1,356 received in a single dose 1.5 ± 0.2 mg of levonorgestrel within 72 hours of the unprotected coitus.
The incidence of vomiting was 1.4% in both groups. As the new regimen also has the advantageous properties resulting from the lack of the estrogen component, the incidence of nausea, feeling of sickness, vomiting was apparently low.
The incidence of menstrual disorders was not increased either by the single administration of 1.5 mg dose of levonorgestrel compared to the administration of two 0.75 mg doses. The incidence of menstrual disorders was 30.9% in both groups.

Consider `C#C[C@]1(O)CC[C@H]2[C@@H]3CCC4=CC(=O)CC[C@@H]4[C@H]3CC[C@@]21CC` [levonorgestrel], for which the “Prevented fraction (percent of conception which otherwise might happen prevented by the treatment)” value is, setting by setting: (0.75-0.75 mg at 12-hour interval (traditional way)) 77.3%; (single dose 1.5 ± 0.2 mg) 81.9%. Also, the conception rate turned out to be 1.77% (0.75-0.75 mg at 12-hour interval (traditional way), within 72 hours of unprotected coitus, 1,356 women) and 1.47% (single dose 1.5 ± 0.2 mg within 72 hours of unprotected coitus, 1,356 women). For the same compound, where the note is “in vivo”, the “incidence of other side-effects (diarrhoea, fatigue, dizziness, headache, breast tenderness, lower abdominal pain)” value is reported as “not differing significantly”.
